Calls of active or inactive are those of the source.
Assays:
Cryptococcus neoformans [1] = assay: PubChem AID 686997; type: functional, organism-based; details: Cryptococcus neoformans
Cryptococcus neoformans [2] = assay: Cryptococcus growth inhibition by alamar blue – cell lysis, cherry-picks, replicate tests, mechanism study for C. neoformans antifungal project, dose response (AID 686999); type: functional, organism-based
[3] = viability loss in HEK293 cells – cell-based, plate reader, cherry-picked samples, cytotoxicity control, dose response (AID 743446); type: functional
[4] = OVCAR8 cell viability loss – plate reader, dry powder samples, PAX8 project, dose response (AID 743197); type: functional, cell-based; details: OVCAR-8
[5] = OVCAR-3 cell viability loss – plate reader, dry powder samples, PAX8 inhibitor project, dose response (AID 743044); type: functional, cell-based
[6] = blockers of bursicon-stimulated LGR2 cAMP reporter – cell-based, HEK293, CRE-luciferase reporter, cherry pick, set 2, dose response (AID 743343); type: functional;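 note: transfected cells were stimulated with diluted bursicon conditioned medium after compound addition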
[7] = A549 cell cytotoxicity, dose response, cytotoxicity control, plate reader, cherry-pick, antagonist series (AID 743412); type: functional, cell-based
[8] = IGROV1 cell killing – plate reader, dry powder samples, PAX8 inhibitor project, dose response (AID 743043); type: functional, cell-based; details: IGROV-1
[9] = blockade of melanocortin 4 receptor signaling – cell-based, plate reader, cherry pick, counter-screen for LGR2 antagonist project, dose response (AID 743444); type: functional;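 note: transfected HEK 293 cells stimulated with alpha-MSH peptide; potency of inhibitors of the alpha-MSH evoked signal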
Paired box protein Pax-8 = Paired box protein Pax-8 (Homo sapiens, UniProt Q06710); assay: PAX8 transcriptional activity inhibition in RMG-I – RMG-I cells, luciferase, cherry-pick, dose response (AID 687027); type: functional, cell-based;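 note: luciferase reporter driven by Pax8 target thyroperoxidase promoter measured by SteadyGlo luminescence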
Sequence of Paired box protein Pax-8 (Q06710 whole entry): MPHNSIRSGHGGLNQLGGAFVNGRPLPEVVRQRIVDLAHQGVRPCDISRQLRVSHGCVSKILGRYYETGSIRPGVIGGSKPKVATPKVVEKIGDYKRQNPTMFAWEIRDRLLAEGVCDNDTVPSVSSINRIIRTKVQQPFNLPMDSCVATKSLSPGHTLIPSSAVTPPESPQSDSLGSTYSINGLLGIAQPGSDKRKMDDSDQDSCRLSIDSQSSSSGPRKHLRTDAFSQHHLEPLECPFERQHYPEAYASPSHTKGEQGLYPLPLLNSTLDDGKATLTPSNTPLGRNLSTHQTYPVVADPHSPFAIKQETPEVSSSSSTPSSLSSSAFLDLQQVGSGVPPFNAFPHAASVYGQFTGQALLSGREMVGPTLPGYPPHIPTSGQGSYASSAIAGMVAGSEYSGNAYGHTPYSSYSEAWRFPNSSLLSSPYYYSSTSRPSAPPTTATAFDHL

[10] = toxicity toward HepG2 liver cells – cell-based, plate reader, cherry-pick, antagonist series, cytotoxicity control, dose response (AID 743416); type: functional
[11] = cytotoxicity in HEK293 background cells – cell-based, dry powder, set 2, counter-screen for EBV LMP1 inhibitor project, dose response (AID 624374); type: functional
[12] = inhibitors of EBV LMP1 NF-kappaB signaling – cell-based, luciferase reporter, luminescence, dry powder, set 2, dose response (AID 624376); type: functional
[13] = biological target: Induced myeloid leukemia cell differentiation protein Mcl-1 (Homo sapiens, UniProt Q07820); type: functional
Sequence of Induced myeloid leukemia cell differentiation protein Mcl-1 (Q07820 whole entry): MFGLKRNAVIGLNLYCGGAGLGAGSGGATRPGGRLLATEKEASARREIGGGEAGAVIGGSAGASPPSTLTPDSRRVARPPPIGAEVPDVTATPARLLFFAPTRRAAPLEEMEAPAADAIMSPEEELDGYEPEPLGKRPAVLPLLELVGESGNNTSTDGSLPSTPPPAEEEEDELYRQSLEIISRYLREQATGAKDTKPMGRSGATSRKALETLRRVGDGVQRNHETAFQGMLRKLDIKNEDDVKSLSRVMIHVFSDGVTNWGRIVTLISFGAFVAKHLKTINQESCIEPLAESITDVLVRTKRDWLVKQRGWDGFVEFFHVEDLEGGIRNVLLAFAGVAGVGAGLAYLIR

[14] = biological target: T1, Sentrin-specific protease 8 (Homo sapiens, UniProt Q96LD8); type: functional
T1 sequence (Q96LD8 whole entry): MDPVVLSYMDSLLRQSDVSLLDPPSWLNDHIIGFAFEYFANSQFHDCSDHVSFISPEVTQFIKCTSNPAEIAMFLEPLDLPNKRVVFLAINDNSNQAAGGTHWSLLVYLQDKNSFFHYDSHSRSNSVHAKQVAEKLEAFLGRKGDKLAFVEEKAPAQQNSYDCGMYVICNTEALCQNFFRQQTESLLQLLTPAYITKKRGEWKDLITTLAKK

[15] = biological target: T1, Sentrin-specific protease 8; type: functional; remark: listed apart in the source
[16] = biological target: T2, Replicative DNA helicase DnaB (Mycobacterium tuberculosis, UniProt P9WMR3); assay: DnaB intein splicing inhibitors, dose response, biochemical, cell-free fluorescence (AID 449749); type: functional
T2 sequence (P9WMR3 whole entry): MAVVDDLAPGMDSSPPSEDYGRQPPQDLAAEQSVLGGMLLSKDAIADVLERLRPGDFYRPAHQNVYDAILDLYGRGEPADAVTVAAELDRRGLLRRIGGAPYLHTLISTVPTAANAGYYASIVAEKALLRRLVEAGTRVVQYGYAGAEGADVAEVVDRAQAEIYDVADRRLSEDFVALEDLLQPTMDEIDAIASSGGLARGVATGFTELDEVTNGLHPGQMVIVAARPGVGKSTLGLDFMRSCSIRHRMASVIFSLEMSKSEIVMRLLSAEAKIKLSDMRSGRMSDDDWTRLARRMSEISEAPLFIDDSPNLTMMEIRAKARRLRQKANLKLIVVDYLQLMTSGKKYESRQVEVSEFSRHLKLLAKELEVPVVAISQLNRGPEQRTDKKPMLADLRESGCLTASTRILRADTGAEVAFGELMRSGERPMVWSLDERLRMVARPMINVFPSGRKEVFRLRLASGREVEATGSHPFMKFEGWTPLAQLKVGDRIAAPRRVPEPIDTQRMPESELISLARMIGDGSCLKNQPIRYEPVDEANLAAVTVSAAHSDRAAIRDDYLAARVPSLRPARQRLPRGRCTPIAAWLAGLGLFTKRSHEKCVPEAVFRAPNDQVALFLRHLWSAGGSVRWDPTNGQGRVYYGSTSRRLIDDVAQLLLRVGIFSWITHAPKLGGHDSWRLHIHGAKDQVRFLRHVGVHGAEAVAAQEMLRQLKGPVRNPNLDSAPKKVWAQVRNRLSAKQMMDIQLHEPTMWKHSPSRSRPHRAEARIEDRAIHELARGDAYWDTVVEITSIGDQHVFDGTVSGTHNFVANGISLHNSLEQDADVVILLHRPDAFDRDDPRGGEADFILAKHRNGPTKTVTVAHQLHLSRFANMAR

[17] = biological target: T3, Mannose-6-phosphate isomerase (Homo sapiens, UniProt P34949); assay: MPI inhibition at elevated mannose 6-phosphate – biochemical, fluorescence intensity, high mannose 6-phosphate, primary screen (AID 1220)
T3 sequence (P34949 whole entry): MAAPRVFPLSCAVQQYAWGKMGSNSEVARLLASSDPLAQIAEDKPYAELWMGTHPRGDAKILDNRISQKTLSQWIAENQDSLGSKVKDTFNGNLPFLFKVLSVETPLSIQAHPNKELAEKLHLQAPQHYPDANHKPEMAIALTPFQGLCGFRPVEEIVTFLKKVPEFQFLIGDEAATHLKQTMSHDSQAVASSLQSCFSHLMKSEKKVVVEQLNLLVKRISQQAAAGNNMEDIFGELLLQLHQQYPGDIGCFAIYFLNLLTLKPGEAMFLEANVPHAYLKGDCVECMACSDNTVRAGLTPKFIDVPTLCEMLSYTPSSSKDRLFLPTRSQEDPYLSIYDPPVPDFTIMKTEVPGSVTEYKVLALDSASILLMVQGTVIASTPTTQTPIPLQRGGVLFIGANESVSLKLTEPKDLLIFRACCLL

Caspase-3 = biological target: T4, Caspase-3 (Homo sapiens, UniProt P42574); assay: Dose-response confirmation of uHTS inhibitor hits of Sentrin-Specific Protease 8 in a Caspase-3 Fluorescence assay.; type: functional
T4 sequence (P42574 whole entry): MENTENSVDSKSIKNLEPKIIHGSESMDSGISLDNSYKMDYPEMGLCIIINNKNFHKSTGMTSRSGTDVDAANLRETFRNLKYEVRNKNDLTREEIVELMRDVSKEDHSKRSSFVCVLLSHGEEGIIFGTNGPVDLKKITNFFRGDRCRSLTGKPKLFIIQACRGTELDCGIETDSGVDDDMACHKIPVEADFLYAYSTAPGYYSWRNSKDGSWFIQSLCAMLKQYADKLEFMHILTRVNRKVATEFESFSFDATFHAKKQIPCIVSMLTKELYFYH

Protein RecA = biological target: T5, Protein RecA (Mycobacterium tuberculosis, UniProt P9WHJ3); assay: Fluorescence Cell-Free Homogeneous Dose Retest to Identify Inhibitors of RecA-Intein Splicing Activity. [Related pubchem assays (depositor defined):AID2097, AID2223, AID489010, AID492950]; type: functional
T5 sequence (P9WHJ3 whole entry): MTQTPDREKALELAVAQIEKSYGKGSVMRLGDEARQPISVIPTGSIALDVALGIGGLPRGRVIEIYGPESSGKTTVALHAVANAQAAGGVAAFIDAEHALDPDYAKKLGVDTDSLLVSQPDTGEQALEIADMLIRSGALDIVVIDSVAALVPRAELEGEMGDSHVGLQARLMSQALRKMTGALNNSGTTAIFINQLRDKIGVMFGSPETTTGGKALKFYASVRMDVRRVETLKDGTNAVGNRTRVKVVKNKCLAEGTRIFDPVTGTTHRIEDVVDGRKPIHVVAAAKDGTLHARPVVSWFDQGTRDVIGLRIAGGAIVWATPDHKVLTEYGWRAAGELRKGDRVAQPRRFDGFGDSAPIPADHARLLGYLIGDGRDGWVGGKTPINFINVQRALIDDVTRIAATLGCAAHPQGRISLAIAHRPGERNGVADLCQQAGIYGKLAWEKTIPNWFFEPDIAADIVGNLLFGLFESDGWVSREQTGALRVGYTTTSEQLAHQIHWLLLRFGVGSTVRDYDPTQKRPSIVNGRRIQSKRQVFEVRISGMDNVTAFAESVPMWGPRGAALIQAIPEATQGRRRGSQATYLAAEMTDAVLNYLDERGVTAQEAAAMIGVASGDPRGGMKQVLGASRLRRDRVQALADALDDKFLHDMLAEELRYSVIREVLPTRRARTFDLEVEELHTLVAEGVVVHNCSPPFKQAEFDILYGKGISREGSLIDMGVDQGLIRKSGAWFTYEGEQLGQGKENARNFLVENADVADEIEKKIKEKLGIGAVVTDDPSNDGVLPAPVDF

Genome polyprotein = Genome polyprotein (dengue virus type 2, UniProt P29990); assay: flavivirus cap methylation enzyme inhibition – biochemical, confirmation dose response, primary screen (AID 588689); type: functional
Sequence of Genome polyprotein (P29990 2492-3391 limits assumed): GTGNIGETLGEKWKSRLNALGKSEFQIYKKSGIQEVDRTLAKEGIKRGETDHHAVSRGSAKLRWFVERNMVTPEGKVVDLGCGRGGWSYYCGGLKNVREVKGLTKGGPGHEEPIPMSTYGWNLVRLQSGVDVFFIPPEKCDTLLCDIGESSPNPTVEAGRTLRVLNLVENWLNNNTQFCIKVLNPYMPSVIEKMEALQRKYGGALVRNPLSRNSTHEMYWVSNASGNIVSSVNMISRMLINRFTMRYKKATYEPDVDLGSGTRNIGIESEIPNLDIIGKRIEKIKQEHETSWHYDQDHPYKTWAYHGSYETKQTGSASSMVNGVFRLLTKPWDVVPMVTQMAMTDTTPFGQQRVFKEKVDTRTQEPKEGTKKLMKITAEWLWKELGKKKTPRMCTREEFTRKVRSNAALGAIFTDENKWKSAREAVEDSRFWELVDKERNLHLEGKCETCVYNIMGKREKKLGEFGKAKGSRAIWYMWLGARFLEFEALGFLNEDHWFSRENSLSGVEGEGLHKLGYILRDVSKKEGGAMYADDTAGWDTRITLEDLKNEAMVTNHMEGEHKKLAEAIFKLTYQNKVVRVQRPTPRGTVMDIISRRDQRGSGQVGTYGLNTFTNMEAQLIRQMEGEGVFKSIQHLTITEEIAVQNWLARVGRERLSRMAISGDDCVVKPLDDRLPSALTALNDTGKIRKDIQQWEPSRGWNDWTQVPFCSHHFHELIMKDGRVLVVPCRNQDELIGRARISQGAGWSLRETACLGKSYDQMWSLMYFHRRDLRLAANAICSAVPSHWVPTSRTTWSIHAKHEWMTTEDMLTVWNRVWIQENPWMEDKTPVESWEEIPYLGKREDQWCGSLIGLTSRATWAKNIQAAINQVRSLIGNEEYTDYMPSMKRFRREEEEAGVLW

A549 = assay: viability loss in A549 cells – cell-based, plate reader, cherry-pick samples, cytotoxicity control, dose response (AID 687028); type: functional; details: Homo sapiens
Vero = assay: viability loss in Vero cells – cell-based, plate reader, cherry-pick samples, cytotoxicity control, dose response (AID 687020); type: functional; details: Chlorocebus sabaeus
[18] = Luminescence Cell-Based Dose Retest to Confirm Inhibitors of Cancer Stem Cells. [Related pubchem assays (depositor defined):AID2717, AID2721]; type: functional; details: Homo sapiens
H9c2 = assay: cells; type: functional, cell-based; details: Rattus norvegicus, H9c2, Myocardium;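 note: confirmatory concentration-response retest of ultra-high-throughput screening hits for modulation of myocardial damage; cell death induced by hydrogen peroxide oxidative stress; compound pretreatment for 60 min then peroxide exposure for 2 h; potency is for protecting the cells against peroxide damage rather than for killing them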
[19] = ATP-based viability loss in HEK293T cells – cell-based, CellTiter-Glo luminescence, cherry-picked samples, set 4, cytotoxicity control, dose response (AID 743441); type: functional; details: HEK293
[20] = biological target: Fructose-bisphosphate aldolase (Mycobacterium tuberculosis, UniProt P9WQA3); assay: Fluorescence-based biochemical high throughput dose response assay for inhibitors of the fructose-bisphosphate aldolase (FBA) of M. tuberculosis.; type: functional
Sequence of Fructose-bisphosphate aldolase (P9WQA3 whole entry): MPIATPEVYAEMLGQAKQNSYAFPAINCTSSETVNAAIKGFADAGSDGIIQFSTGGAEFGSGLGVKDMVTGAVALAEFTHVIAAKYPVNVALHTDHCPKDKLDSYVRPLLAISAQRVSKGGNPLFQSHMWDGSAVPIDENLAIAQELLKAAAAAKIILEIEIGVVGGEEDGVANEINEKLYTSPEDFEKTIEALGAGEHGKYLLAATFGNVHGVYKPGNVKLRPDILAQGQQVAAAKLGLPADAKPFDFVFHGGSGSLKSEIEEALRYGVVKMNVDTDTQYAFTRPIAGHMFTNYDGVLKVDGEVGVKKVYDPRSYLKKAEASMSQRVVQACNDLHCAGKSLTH

[21] = general mammalian cell viability loss – inhibitor set, cherry-pick, set 2, cytotoxicity control for miR-122 modulator project, dose response (AID 720697); type: functional, cell-based
cells [22] = type: functional, cell-based
[23] = Trypanosoma cruzi growth suppression in host cells – NIH3T3 host cells, beta-gal luminescence, confirmation (AID 2044); type: functional, cell-based;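 note: intracellular parasites grown in NIH/3T3 mouse fibroblasts as host cells; luminescent beta-galactosidase reporter signal from transgenic T. cruzi replicating inside host cells; inhibitors lower the luminescence signal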
cells [24] = type: functional, cell-based; remark: listed apart in the source
[25] = HepG2 cell cytotoxicity, dose response, cytotoxicity control for non-replicating M. tuberculosis project (AID 489018); type: functional; details: Mycobacterium tuberculosis
[26] = NIH3T3 cell viability loss – ATP luminescence, mouse fibroblasts, counter-screen, dose response (AID 2010); type: functional, cell-based;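 note: cells exposed to compound for about 90 hours before reading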
Albumin = Albumin (Bos taurus, UniProt P02769); assay: Counterscreen for inhibitors of T-cell receptor (TCR)-CD3 interaction: Fluorescence-based biochemical high throughput dose response assay to identify inhibitors of T-cell receptor (TCR)-CD3 interaction using a TAMRA-labeled BSA probe.; type: functional
Sequence of Albumin (P02769 whole entry): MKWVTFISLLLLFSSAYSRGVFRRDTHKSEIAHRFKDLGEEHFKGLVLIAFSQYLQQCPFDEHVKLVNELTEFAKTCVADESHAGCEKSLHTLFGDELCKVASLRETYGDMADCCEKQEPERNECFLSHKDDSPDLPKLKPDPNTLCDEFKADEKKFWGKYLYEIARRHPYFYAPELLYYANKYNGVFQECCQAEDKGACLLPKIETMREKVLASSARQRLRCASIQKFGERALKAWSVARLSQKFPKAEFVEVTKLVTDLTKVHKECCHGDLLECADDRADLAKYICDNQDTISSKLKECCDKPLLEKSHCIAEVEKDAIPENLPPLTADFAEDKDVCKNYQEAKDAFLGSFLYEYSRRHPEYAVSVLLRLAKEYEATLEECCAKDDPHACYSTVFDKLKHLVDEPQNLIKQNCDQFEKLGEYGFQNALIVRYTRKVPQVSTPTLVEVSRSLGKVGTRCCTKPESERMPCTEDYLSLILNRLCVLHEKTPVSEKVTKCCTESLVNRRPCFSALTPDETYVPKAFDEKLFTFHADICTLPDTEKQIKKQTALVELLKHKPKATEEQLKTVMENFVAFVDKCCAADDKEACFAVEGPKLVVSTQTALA

[27] = THP-1 cell cytotoxicity, dose response, cytotoxicity control for non-replicating M. tuberculosis project (AID 489025); type: functional
[28] = Vero E6 cell cytotoxicity, dose response, cytotoxicity control for non-replicating M. tuberculosis project, secondary assay (AID 492998); type: functional, VeroE6; details: Vero C1008
[29] = Vibrio cholerae quorum sensing activators (AID 686977); type: functional

COC(=O)C1=C(C)N(Cc2ccc(Cl)cc2)C(=S)NC1c1ccccc1 (configuration not stated)
AC50 (Cryptococcus neoformans [1]): 25.9 µM (active) | AC50 (Cryptococcus neoformans [2]): 36.1 µM (active)

COc1cccc(-c2ccc3c(c2)[C@H]2[C@H](CCN2C(=O)c2ccccc2F)[C@H](CO)N3C)c1
AC50 [3]: 20.5 µM (active) | AC50 [4]: 25.3 µM (active) | AC50 [5]: 22.7 µM (active) | AC50 [6]: 5.53 µM (active) | AC50 [7]: 13.8 µM (active) | AC50 [8]: 57.8 µM (active) | AC50 [9]: 7.07 µM (active) | AC50 (Paired box protein Pax-8): 8.72 µM (active) | AC50 [10]: 24 µM (active)

COc1cccc(-c2cccc(-c3nc(C(=O)NCC(F)(F)F)cc4c3[C@H](CCO)N([S@@+]([O-])C(C)(C)C)C4)c2)c1
AbsAC35 [11]: 43.43 µM | AbsAC35 [12]: 56.19 µM

Nc1scc2c(C(=O)N/N=C/c3ccc(Cl)cc3)nn(-c3ccccc3)c(=O)c12
IC50 [13]: 1.95 µM (active) | IC50 [14]: 0.5 µM (active) | IC50 [15]: 0.577 µM (active) | AC50 [16]: 7.02 µM (active) | IC50 [17]: > 50 µM (not active) | IC50 (Caspase-3): 4.47 µM (active) | EC50 (Protein RecA): 5.71 µM (active) | IC50 (Genome polyprotein): 70.6 µM (active)

COc1ccc(S(=O)(=O)N(CC(C)C)CC(C)C)c2cccnc12
AC50 (A549): 19.5 µM (active) | AC50 (Vero): 39 µM (active)

COc1ccc(-n2cc(-c3ccccc3)c3c(N4CCOCC4)ncnc32)cc1
AC50 [18]: 3.78 µM (active) | IC50 (H9c2): > 79 µM (inactive) | AC50 [19]: 48.5 µM (active)

CC1=CC2=NCC(O)CN2C=C1 (configuration not stated)
IC50 [20]: 5.11 µM (active)

O=C1NC(=O)N(CCC2=CCCCC2)C(=O)/C1=C\c1cccs1
AC50 [21]: 1.06 µM (active)

O=C(N/N=C/c1cc(Br)cc(Br)c1O)c1cccc(N2CCCC2=O)c1
EC50 (cells [22]): > 350 µM (not active) | EC50 [23]: 1.55 µM (active) | EC50 (cells [24]): 138 µM (active) | CC50 [25]: > 20 µM (active) | EC50 [26]: > 60 µM (not active) | IC50 (Albumin): > 94.1 µM (inactive) | CC50 [27]: 15.2 µM (active) | CC50 [28]: 15 µM (active)

O=C(Nc1ccc(F)cc1F)c1sccc1SCc1cccc(C(F)(F)F)c1
IC50 [29]: 77.9 µM (active)
